Results reported in patent publication US11311520B2, “Substituted dihydroimidazopyridinediones as MKNK1 and MKNK2 inhibitors” (Bayer Pharma Aktiengesellschaft, priority 2017, dated 2022).

target: human full-length MKNK1 (Homo sapiens (Human), UniProt Q9BUB5, T344D); experiment: MKNK1 kinase high ATP assay (TR-FRET); assay type: biochemical; conditions: 2 mM ATP, 15 min preincubation with enzyme, GST-MKNK1 (T344D)
Summary of the method: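 GST-tagged full-length human MKNK1 (1-424, T344D, baculovirus-expressed) preincubated 15 min at 22 °C with compound, then reacted 30 min at 22 °C with 2 mM ATP and 0.06 μM biotinylated peptide (final) in HEPES pH 7.5. Phospho-substrate by TR-FRET (665/622 nm ratio), normalised to no-inhibitor and no-enzyme controls.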

Chain of human full-length MKNK1 (Q9BUB5 other isoform, or with tags, fused parts or gaps T344D): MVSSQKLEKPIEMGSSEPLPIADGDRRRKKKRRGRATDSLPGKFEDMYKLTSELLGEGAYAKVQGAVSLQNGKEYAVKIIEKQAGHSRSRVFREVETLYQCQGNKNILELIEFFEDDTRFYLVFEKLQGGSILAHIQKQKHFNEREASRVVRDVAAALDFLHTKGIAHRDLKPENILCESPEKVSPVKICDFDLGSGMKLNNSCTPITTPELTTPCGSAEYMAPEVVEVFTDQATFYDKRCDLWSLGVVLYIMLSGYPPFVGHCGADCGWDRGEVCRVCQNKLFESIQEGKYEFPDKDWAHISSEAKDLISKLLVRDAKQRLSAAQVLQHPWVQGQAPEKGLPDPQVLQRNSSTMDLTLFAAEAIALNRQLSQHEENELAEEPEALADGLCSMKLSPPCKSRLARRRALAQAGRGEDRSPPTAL

**Q.** With Cc1cc(Nc2ncnc3sc(C(=O)O)c(C)c23)c(=O)n2c1C(=O)NC21CCCC1 [Example 95, 5-Methyl-4-[(8′-methyl-1′,5′-dioxo-1′,5′-dihydro-2′H-spiro[cyclopentane-1,3′-imidazo[1,5-a]pyridin]-6′-yl)amino]thieno[2,3-d]pyrimidine-6-carboxylic acid] as the compound, how does the IC50 read?
**A.** 5.8 nM

**Q.** With Cc1cc(Nc2ncnc3sc(C(=O)N4C[C@H]5C[C@@H]4CO5)cc23)c(=O)n2c1C(=O)NC21CCCC1 [Example 96, 8′-Methyl-6′-({6-[(1R,4R)-2-oxa-5-azabicyclo[2.2.1]hept-5-ylcarbonyl]thieno[2,3-d]pyrimidin-4-yl}amino)-2′H-spiro[cyclopentane-1,3′-imidazo[1,5-a]pyridine]-1′,5′-dione] as the compound, how does the IC50 read?
**A.** 3.9 nM

**Q.** For Cc1cc(Nc2ncnc3sc(C(N)=O)cc23)c(=O)n2c1C(=O)NC21CCCCC1 [Example 97, 4-[(8′-Methyl-1′,5′-dioxo-1′,5′-dihydro-2′H-spiro[cyclohexane-1,3′-imidazo[1,5-a]pyridin]-6′-yl)amino]thieno[2,3-d]pyrimidine-6-carboxamide], which IC50 is on record?
**A.** 5.1 nM

**Q.** Which IC50 does the source give for Cc1cc(Nc2ncnc3ccc(Cl)cc23)c(=O)n2c1C(=O)NC21CCCC1 [Example 98, 6′-[(6-Chloroquinazolin-4-yl)amino]-8′-methyl-2′H-spiro[cyclopentane-1,3′-imidazo[1,5-a]pyridine]-1′,5′-dione] here?
**A.** 7.6 nM

**Q.** Which IC50 does the source give for Cc1cc(Nc2ncnc3ccc(Cl)cc23)c(=O)n2c1C(=O)NC21CCC(F)(F)CC1 [Example 99, 6′-[(6-chloroquinazolin-4-yl)amino]-4,4-difluoro-8′-methyl-2′H-spiro[cyclohexane-1,3′-imidazo[1,5-a]pyridine]-1′,5′-dione] here?
**A.** 18.8 nM

**Q.** For Cc1cc(Nc2ncnc3scnc23)c(=O)n2c1C(=O)NC21CCCC1 [Example 100, 8′-Methyl-6′-([1,3]thiazolo[5,4-d]pyrimidin-7-ylamino)-2′H-spiro[cyclopentane-1,3′-imidazo[1,5-a]pyridine]-1′,5′-dione], which IC50 is on record?
**A.** 70.5 nM

**Q.** Cc1cc(Nc2ncnc3scnc23)c(=O)n2c1C(=O)NC21CCC(F)(F)CC1 [Example 101, 4,4-Difluoro-8′-methyl-6′-([1,3]thiazolo[5,4-d]pyrimidin-7-ylamino)-2′H-spiro[cyclohexane-1,3′-imidazo[1,5-a]pyridine]-1′,5′-dione] was tested. Which IC50 did it give?
**A.** 187 nM

**Q.** How did the IC50 turn out when Cc1cc(Nc2ncnc3sc(C(N)=O)cc23)c(=O)n2c1C(=O)NC21CCCC1 [Example 102, 4-[(8′-Methyl-1′,5′-dioxo-1′,5′-dihydro-2′H-spiro[cyclopentane-1,3′-imidazo[1,5-a]pyridin]-6′-yl)amino]thieno[2,3-d]pyrimidine-6-carboxamide] was run?
**A.** 5.7 nM

**Q.** With Cc1cc(Nc2ncnc3c2CN(C(=O)OC(C)(C)C)C3)c(=O)n2c1C(=O)NC21CCCC1 [Example 103, tert-Butyl 4-[(8′-methyl-1′,5′-dioxo-1′,5′-dihydro-2′H-spiro[cyclopentane-1,3′-imidazo[1,5-a]pyridin]-6′-yl)amino]-5,7-dihydro-6H-pyrrolo[3,4-d]pyrimidine-6-carboxylate] as the compound, how does the IC50 read?
**A.** 4.7 nM

**Q.** For Cc1cc(Nc2ncnc3c2CN(C(=O)OC(C)(C)C)C3)c(=O)n2c1C(=O)NC21CCC(F)(F)CC1 [Example 104, tert-Butyl 4-[(4,4-difluoro-8′-methyl-1′,5′-dioxo-1′,5′-dihydro-2′H-spiro[cyclohexane-1,3′-imidazo[1,5-a]pyridin]-6′-yl)amino]-5,7-dihydro-6H-pyrrolo[3,4-d]pyrimidine-6-carboxylate], which IC50 is on record?
**A.** 30.2 nM

**Q.** Cc1cc(Nc2ncnc3[nH]ncc23)c(=O)n2c1C(=O)NC21CCC(F)(F)CC1 [Example 105, 4,4-Difluoro-8′-methyl-6′-(1H-pyrazolo[3,4-d]pyrimidin-4-ylamino)-2′H-spiro[cyclohexane-1,3′-imidazo[1,5-a]pyridine]-1′,5′-dione] was tested. Which IC50 did it give?
**A.** 8.3 nM

**Q.** Cc1cc(Nc2ncnc3[nH]cnc23)c(=O)n2c1C(=O)NC21CCC(F)(F)CC1 [Example 106, 4,4-Difluoro-8′-methyl-6′-(9H-purin-6-ylamino)-2′H-spiro[cyclohexane-1,3′-imidazo[1,5-a]pyridine]-1′,5′-dione] was tested. Which IC50 did it give?
**A.** 3.5 nM

**Q.** How did the IC50 turn out when Cc1cc(Nc2ncnc3sc(C(N)=O)c(C)c23)c(=O)n2c1C(=O)NC21CCCC1 [Example 107, 5-Methyl-4-[(8′-methyl-1′,5′-dioxo-1′,5′-dihydro-2′H-spiro[cyclopentane-1,3′-imidazo[1,5-a]pyridin]-6′-yl)amino]thieno[2,3-d]pyrimidine-6-carboxamide] was run?
**A.** 111 nM

**Q.** Cc1cc(Nc2ncnc3cc(Cl)ccc23)c(=O)n2c1C(=O)NC21CCCCC1 [Example 108, 6′-[(7-Chloroquinazolin-4-yl)amino]-8′-methyl-2′H-spiro[cyclohexane-1,3′-imidazo[1,5-a]pyridine]-1′,5′-dione] was tested. Which IC50 did it give?
**A.** 16.5 nM

**Q.** How did the IC50 turn out when Cc1cc(Nc2ncnc3cccc(Cl)c23)c(=O)n2c1C(=O)NC21CCCCC1 [Example 109, 6′-[(5-Chloroquinazolin-4-yl)amino]-8′-methyl-2′H-spiro[cyclohexane-1,3′-imidazo[1,5-a]pyridine]-1′,5′-dione] was run?
**A.** 10.2 nM

**Q.** How did the IC50 turn out when Cc1cc(Nc2ncnc3c(Cl)cc(Cl)cc23)c(=O)n2c1C(=O)NC21CCCCC1 [Example 110, 6′-[(6,8-Dichloroquinazolin-4-yl)amino]-8′-methyl-2′H-spiro[cyclohexane-1,3′-imidazo[1,5-a]pyridine]-1′,5′-dione] was run?
**A.** 5580 nM

**Q.** With Cc1cc(Nc2ncnc3c(F)cccc23)c(=O)n2c1C(=O)NC21CCCCC1 [Example 111, 6′-[(8-Fluoroquinazolin-4-yl)amino]-8′-methyl-2′H-spiro[cyclohexane-1,3′-imidazo[1,5-a]pyridine]-1′,5′-dione] as the compound, how does the IC50 read?
**A.** 517 nM

**Q.** With Cc1cc(Nc2ncnc3cc(F)ccc23)c(=O)n2c1C(=O)NC21CCCCC1 [Example 112, 6′-[(7-Fluoroquinazolin-4-yl)amino]-8′-methyl-2′H-spiro[cyclohexane-1,3′-imidazo[1,5-a]pyridine]-1′,5′-dione] as the compound, how does the IC50 read?
**A.** 25.3 nM

**Q.** How did the IC50 turn out when Cc1cc(Nc2ncnc3ccc(F)cc23)c(=O)n2c1C(=O)NC21CCCCC1 [Example 113, 6′-[(6-Fluoroquinazolin-4-yl)amino]-8′-methyl-2′H-spiro[cyclohexane-1,3′-imidazo[1,5-a]pyridine]-1′,5′-dione] was run?
**A.** 15.4 nM

**Q.** For Cc1cc(Nc2ncnc3cc(F)cc(F)c23)c(=O)n2c1C(=O)NC21CCCCC1 [Example 114, 6′-[(5,7-Difluoroquinazolin-4-yl)amino]-8′-methyl-2′H-spiro[cyclohexane-1,3′-imidazo[1,5-a]pyridine]-1′,5′-dione], which IC50 is on record?
**A.** 8.6 nM

**Q.** Which IC50 does the source give for Cc1cc(Nc2ncnc3c(F)c(F)ccc23)c(=O)n2c1C(=O)NC21CCCCC1 [Example 115, 6′-[(7,8-Difluoroquinazolin-4-yl)amino]-8′-methyl-2′H-spiro[cyclohexane-1,3′-imidazo[1,5-a]pyridine]-1′,5′-dione] here?
**A.** 208 nM

**Q.** Which IC50 does the source give for COc1ccc2c(Nc3cc(C)c4n(c3=O)C3(CCCCC3)NC4=O)ncnc2c1 [Example 116, 6′-[(7-Methoxyquinazolin-4-yl)amino]-8′-methyl-2′H-spiro[cyclohexane-1,3′-imidazo[1,5-a]pyridine]-1′,5′-dione] here?
**A.** 4 nM

**Q.** With COc1ccc2ncnc(Nc3cc(C)c4n(c3=O)C3(CCCCC3)NC4=O)c2c1 [Example 117, 6′-[(6-Methoxyquinazolin-4-yl)amino]-8′-methyl-2′H-spiro[cyclohexane-1,3′-imidazo[1,5-a]pyridine]-1′,5′-dione] as the compound, how does the IC50 read?
**A.** 12.5 nM

**Q.** COc1cccc2ncnc(Nc3cc(C)c4n(c3=O)C3(CCCCC3)NC4=O)c12 [Example 118, 6′-[(5-Methoxyquinazolin-4-yl)amino]-8′-methyl-2′H-spiro[cyclohexane-1,3′-imidazo[1,5-a]pyridine]-1′,5′-dione] was tested. Which IC50 did it give?
**A.** 66.3 nM

**Q.** For COc1cc2ncnc(Nc3cc(C)c4n(c3=O)C3(CCCCC3)NC4=O)c2cc1OC [Example 119, 6′-[(6,7-Dimethoxyquinazolin-4-yl)amino]-8′-methyl-2′H-spiro[cyclohexane-1,3′-imidazo[1,5-a]pyridine]-1′,5′-dione], which IC50 is on record?
**A.** 3 nM

**Q.** Which IC50 does the source give for Cc1cc(Nc2ncnc3c(C)cccc23)c(=O)n2c1C(=O)NC21CCCCC1 [Example 120, 8′-methyl-6′-[(8-methylquinazolin-4-yl)amino]-2′H-spiro[cyclohexane-1,3′-imidazo[1,5-a]pyridine]-1′,5′-dione] here?
**A.** > 20000 nM

**Q.** Which IC50 does the source give for Cc1ccc2c(Nc3cc(C)c4n(c3=O)C3(CCCCC3)NC4=O)ncnc2c1 [Example 121, 8′-Methyl-6′-[(7-methylquinazolin-4-yl)amino]-2′H-spiro[cyclohexane-1,3′-imidazo[1,5-a]pyridine]-1′,5′-dione] here?
**A.** 7.1 nM

**Q.** How did the IC50 turn out when Cc1ccc2ncnc(Nc3cc(C)c4n(c3=O)C3(CCCCC3)NC4=O)c2c1 [Example 122, 8′-Methyl-6′-[(6-methylquinazolin-4-yl)amino]-2′H-spiro[cyclohexane-1,3′-imidazo[1,5-a]pyridine]-1′,5′-dione] was run?
**A.** 13.2 nM

**Q.** For Cc1cc(Nc2ncnc3cccc(C)c23)c(=O)n2c1C(=O)NC21CCCCC1 [Example 123, 8′-Methyl-6′-[(5-methylquinazolin-4-yl)amino]-2′H-spiro[cyclohexane-1,3′-imidazo[1,5-a]pyridine]-1′,5′-dione], which IC50 is on record?
**A.** 9.7 nM

**Q.** How did the IC50 turn out when Cc1cc(Nc2ncnc3ccc(C(F)(F)F)cc23)c(=O)n2c1C(=O)NC21CCCCC1 [Example 124, 8′-Methyl-6′-{[6-(trifluoromethyl)quinazolin-4-yl]amino}-2′H-spiro[cyclohexane-1,3′-imidazo[1,5-a]pyridine]-1′,5′-dione] was run?
**A.** 49.9 nM

**Q.** How did the IC50 turn out when Cc1cc(Nc2ncnc3c2CNC3)c(=O)n2c1C(=O)NC21CCC(F)(F)CC1 [Example 125, 6′-(6,7-Dihydro-5H-pyrrolo[3,4-d]pyrimidin-4-ylamino)-4,4-difluoro-8′-methyl-2′H-spiro[cyclohexane-1,3′-imidazo[1,5-a]pyridine]-1′,5′-dione] was run?
**A.** 46.5 nM
